# How the values were obtained:
# [1] = system: MK-801-treated mice; experiment: Acoustic startle response task (ASRT), prepulse inhibition; assay type: in vivo
# Description: (§1) The mice were housed in the University Animal Care Unit for one week prior to the experiment. Each cage housed 10 mice, and all mice had unlimited access to water and food. […] The Institutional Animal Care and Use Committee of Kyung Hee University approved the mouse experimental protocols (approval number: KHUASP-22-530).
# The ASRT was conducted using SR-LAB startle chambers (San Diego Instruments, San Diego, CA, USA), consisting of a box that can lightly confine the mice, a system that can generate sound stimuli regularly, equipment that can measure animal movements, a program that can digitize the measured stimuli, and a source and speaker that can provide sound. The ASRT sessions included three trials: non-stimulus (PPI-1), startle (pulse alone, PPI-2), and prepulse (prepulse + pulse, PPI-3). The PPI-1 trial consisted of background noise only. The PPI-2 trial consisted of constant noise (80−120 dB, five sections) for 40 ms. The PPI-3 trial consisted of a noise prepulse ([…], which are 3, 6, 12, and 16 dB above the background noise, respectively) for 20 ms, a delay for 80 ms, and a 120 dB startle pulse for 40 ms. The percentage score for PPI was calculated as follows: % PPI = [(PPI-2 – PPI-3)/(PPI-2)] × 100(%).
# [2] = system: MK-801-treated mice; experiment: Social novelty preference test (SNPT); assay type: in vivo
# Excerpt: as §1
# Three chambers in a rectangular Plexiglas box (w × d × h: 94 × 28 × 30 cm) were used for the SNPT. The left, right, and central chambers were all joined together by openings (w × d: 6 × 28 cm). On the center of the left and right chambers, an iron muntin cylinder lockup (h × d: 11 × 12 cm) was installed. A test mouse was allowed to interact with another mouse that was trapped in the cylinder lockup. A test mouse was placed in the middle chamber during the acclimatization trial (trial-1, 10 min) and was allowed to freely explore all three compartments through the apertures. A mouse that was younger than the test mouse was placed in a lockup in the first sociability experiment (trial-2) following trial-1, while the other lockup remained. The test mouse was taken to the center compartment and allowed to wander around. The second sociability trial (trial-3) was performed immediately after trial-2. A new mouse that was younger than the test mouse was put in the empty cell during trial-3 (10 min), and the test mouse was put into an empty lockup and allowed to explore.
# [3] = molecular target: T1, hMAO-A (Homo sapiens, UniProt P21397); experiment: In vitro hMAO-inhibitory assay (MAO-Glo), hMAO-A; assay type: biochemical; settings: mean ± SD of triplicate experiments
# T1 sequence (P21397 1-527): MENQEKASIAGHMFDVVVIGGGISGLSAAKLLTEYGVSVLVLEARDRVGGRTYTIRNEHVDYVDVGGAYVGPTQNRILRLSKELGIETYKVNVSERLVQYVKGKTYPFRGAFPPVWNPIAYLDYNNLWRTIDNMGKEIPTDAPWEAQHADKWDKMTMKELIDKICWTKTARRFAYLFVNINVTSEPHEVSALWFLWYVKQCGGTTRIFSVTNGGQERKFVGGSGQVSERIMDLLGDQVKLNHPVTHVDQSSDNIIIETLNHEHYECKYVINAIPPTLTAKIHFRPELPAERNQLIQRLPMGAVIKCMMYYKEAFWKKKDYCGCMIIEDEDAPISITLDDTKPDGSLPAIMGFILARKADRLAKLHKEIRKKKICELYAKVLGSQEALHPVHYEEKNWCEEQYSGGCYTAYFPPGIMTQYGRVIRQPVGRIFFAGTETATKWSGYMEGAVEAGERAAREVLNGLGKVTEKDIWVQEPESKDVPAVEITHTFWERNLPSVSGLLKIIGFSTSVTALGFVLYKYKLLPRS
# Excerpt: (§2) A homogeneous luminescent assay using the MAO-Glo™ assay kit (Promega, Madison, WI, USA) was used to evaluate the hMAO-inhibitory activity of icariin and its metabolites according to the manufacturer’s protocol.
# [4] = molecular target: T2, hMAO-B (Homo sapiens, UniProt P27338); experiment: In vitro hMAO-inhibitory assay (MAO-Glo), hMAO-B; assay type: biochemical; settings: mean ± SD of triplicate experiments
# T2 sequence (P27338 1-520): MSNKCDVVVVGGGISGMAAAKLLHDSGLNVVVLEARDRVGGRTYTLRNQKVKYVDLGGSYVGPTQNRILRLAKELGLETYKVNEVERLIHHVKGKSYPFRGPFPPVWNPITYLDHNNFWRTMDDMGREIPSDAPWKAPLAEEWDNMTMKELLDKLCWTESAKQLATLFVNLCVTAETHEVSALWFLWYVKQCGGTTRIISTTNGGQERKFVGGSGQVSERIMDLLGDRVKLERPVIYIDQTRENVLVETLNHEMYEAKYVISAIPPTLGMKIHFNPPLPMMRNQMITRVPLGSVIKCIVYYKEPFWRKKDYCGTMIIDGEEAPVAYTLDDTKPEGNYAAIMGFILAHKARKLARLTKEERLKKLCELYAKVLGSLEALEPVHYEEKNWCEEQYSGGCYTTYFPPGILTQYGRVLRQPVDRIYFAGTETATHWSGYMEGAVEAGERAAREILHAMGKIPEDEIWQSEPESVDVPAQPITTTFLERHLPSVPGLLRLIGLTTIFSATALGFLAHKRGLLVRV
# Excerpt: as §2
# [5] = system: ferrous-treated rat brain homogenates; experiment: Lipid peroxidation assay (TBARS); assay type: biochemical; settings: rat brain homogenate; mean ± SD of triplicate experiments
# Description: Whole brain homogenates from male Sprague-Dawley rats (6 months old) were prepared according to procedures described in previous studies. […] After 1 h of incubation at 37 °C, the stop solution was added to the reaction mixture. After incubation in boiling water for 1 h, the reaction mixture was extracted with normal butanol and centrifuged (1300× g for 10 min).
# [6] = molecular target: T3, muscarinic acetylcholine M2 receptor (M2R) (Homo sapiens, UniProt P08172); settings: 100 μM; control agonist 300 nM ACh
# T3 sequence (P08172 1-466): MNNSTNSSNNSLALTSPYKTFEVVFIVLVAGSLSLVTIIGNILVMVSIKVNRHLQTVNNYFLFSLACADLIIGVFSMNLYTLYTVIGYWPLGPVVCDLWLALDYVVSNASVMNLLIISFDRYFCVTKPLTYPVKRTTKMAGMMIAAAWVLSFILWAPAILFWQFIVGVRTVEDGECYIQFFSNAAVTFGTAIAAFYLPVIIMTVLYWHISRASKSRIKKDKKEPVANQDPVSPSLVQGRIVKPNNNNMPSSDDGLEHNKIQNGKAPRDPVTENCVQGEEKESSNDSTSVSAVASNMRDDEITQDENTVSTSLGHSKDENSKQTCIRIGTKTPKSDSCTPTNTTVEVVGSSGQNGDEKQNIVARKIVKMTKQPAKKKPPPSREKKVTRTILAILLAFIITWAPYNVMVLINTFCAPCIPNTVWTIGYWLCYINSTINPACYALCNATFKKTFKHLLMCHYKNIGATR
# [7] = design: method as in PMID 31844591; settings: cited from earlier work
# [8] = molecular target: T3, muscarinic acetylcholine M2 receptor (M2R); experiment: Radioligand binding assay ([3H]AF-DX 384, CHO-M2R membrane homogenates); design: host or cells: CHO-K1
# Description: (§3) Next, 10 μM (f.c.) (+)-butaclamol (for D3R) and 1 μM (f.c.) atropine (for M2R) were used to detect nonspecific binding in the respective assays. The binding affinity of a test compound was calculated as the inhibition (%) of control (radioligand)-specific binding.
# [9] = molecular target: T4, M4 mACh receptor (M4R) (Homo sapiens, UniProt P08173); experiment: cAMP antagonist assay (M4R); settings: read-out: Antagonist effect (%) M4 (inhibition of the control agonist response)
# T4 sequence (P08173 1-479): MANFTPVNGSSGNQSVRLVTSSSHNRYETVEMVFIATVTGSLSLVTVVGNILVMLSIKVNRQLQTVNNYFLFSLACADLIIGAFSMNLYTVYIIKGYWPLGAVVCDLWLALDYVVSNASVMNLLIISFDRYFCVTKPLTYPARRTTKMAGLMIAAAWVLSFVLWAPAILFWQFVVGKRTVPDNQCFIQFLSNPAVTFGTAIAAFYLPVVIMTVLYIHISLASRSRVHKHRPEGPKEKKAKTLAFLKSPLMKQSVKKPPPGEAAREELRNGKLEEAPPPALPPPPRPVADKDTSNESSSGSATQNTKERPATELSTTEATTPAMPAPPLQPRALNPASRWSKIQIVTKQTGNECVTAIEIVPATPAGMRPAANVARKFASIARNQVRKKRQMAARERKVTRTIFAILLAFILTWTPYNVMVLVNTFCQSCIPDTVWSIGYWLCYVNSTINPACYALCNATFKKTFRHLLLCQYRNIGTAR
# [10] = molecular target: T5, vasopressin 1A receptor (V1AR) (Homo sapiens, UniProt P37288); assay type: cell-based; settings: 100 μM; stimulus AVP (10 nM)
# T5 construct: host or cells: CHO-K1
# Excerpt: a All products including cell-line and reagents were provided by Cerep (Cel le L'Evescault, France).
# [11] = molecular target: T6, Human D3R (Homo sapiens, UniProt P35462); assay type: binding; settings: 50 μM
# T6 construct: expressed in transfected cells; host or cells: CHO-K1 (membrane homogenates)
# Description: as §3
# [12] = molecular target: T4, M4 mACh receptor (M4R); experiment: cAMP agonist assay (M4R); settings: 100 μM
# T6 sequence (P35462 whole entry): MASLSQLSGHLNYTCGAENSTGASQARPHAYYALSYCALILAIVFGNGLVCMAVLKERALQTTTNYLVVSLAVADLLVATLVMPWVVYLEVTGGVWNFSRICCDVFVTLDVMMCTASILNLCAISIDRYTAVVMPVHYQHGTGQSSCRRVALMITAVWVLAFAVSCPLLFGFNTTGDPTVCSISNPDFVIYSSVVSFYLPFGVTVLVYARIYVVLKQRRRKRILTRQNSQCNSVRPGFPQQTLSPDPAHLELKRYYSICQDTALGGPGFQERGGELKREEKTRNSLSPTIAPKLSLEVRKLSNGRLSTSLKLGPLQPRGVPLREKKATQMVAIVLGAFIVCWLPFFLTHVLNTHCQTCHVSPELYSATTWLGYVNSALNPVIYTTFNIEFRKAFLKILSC
# T5 sequence (P37288 whole entry): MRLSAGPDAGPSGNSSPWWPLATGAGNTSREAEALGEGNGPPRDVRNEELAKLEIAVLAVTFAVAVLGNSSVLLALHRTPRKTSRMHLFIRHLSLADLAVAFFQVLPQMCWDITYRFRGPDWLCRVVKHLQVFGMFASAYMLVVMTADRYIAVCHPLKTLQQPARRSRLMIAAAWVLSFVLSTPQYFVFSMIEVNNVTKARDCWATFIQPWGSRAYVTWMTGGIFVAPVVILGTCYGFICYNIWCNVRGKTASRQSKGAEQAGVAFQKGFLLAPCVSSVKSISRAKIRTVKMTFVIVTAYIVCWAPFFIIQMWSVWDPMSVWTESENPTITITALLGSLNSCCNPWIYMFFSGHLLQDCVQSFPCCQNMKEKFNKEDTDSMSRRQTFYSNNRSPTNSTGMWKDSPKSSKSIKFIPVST
compound,measurement,setting,value
C[C@]12N[C@H](Cc3ccccc31)c1ccccc12 [MK-801],acoustic startle amplitude,"[1]; 0.2 mg/kg alone (i.p.), at 120 dB",significantly increased
same,prepulse inhibition (PPI),"[1]; 0.2 mg/kg alone (i.p.), at +3, +6, +12, and +16 dB above the background noise (70 dB)",decreased
same,amount of time spent in the chamber with the unknown mouse,"[2]; alone, 0.2 mg/kg, i.p., compared with control group",considerably reduced
"O=C1CCc2ccc(OCCCCN3CCN(c4cccc(Cl)c4Cl)CC3)cc2N1 [aripiprazole, reference compound]",effect on MK-801-induced PPI deficits,"[1]; 1 mg/kg, i.p., at +12 and +16 dB above the background noise",significantly reversed
same,effect on MK-801-induced social interaction deficits,"[2]; 1 mg/kg, i.p.",significantly reversed
"COc1ccc(-c2oc3c(CC=C(C)C)c(O)cc(O)c3c(=O)c2O)cc1 [Icaritin, icaritin]",IC50,[3],> 500 µM
same,IC50,[4],> 500 µM
same,IC50,[5],81.3 ± 3.09 µM
same,effect on MK-801-induced PPI deficits,"[1]; 1, 3, and 10 mg/kg, p.o.",no significant effects
same,effect on MK-801-induced social interaction deficits,"[2]; 3 and 10 mg/kg, p.o.",significantly reversed
same,Antagonist effect (%) M2,[6],54.55%
same,blood-brain barrier penetration,[7],could penetrate the blood-brain barrier (BBB) readily
same,Radioligand specific binding (%) (M2R),[8]; 100 μM,81.95%
same,Radioligand specific binding (%) (M2R),[8]; 150 μM,64.00%
same,blocked radioligand binding to the target binding site (M2R),[8]; 150 μM,36%
same,inhibition at 100 µM,[9],32.4%
"Cc1c(C)c2c(c(C)c1O)CCC(C)(C(=O)O)O2 (centres unmarked) [Trolox, reference compound]",IC50,[5],32.3 ± 3.21 µM
icariside II,antagonist effect on V1AR,[10],42.0%
same,radioligand binding to the target binding site (D3R),[11],almost completely blocked
same,IC50,[5],70.4 ± 2.04 µM
same,effect on MK-801-induced PPI deficits,"[1]; 1, 3, and 10 mg/kg, p.o.",no significant effects
same,effect on MK-801-induced social interaction deficits,"[2]; 1, 3, and 10 mg/kg, p.o.",significantly reversed
same,agonist effect assay on M4R,[12],has an agonist effect
"COc1ccc(-c2oc3c(CC=C(C)C)c(O[C@@H]4O[C@H](CO)[C@@H](O)[C@H](O)[C@H]4O)cc(O)c3c(=O)c2O[C@@H]2O[C@@H](C)[C@H](O)[C@@H](O)[C@H]2O)cc1 [Icariin, icariin]",IC50,[3],422 ± 7.07 µM
same,IC50,[4],> 500 µM
same,IC50,[5],301 ± 2.16 µM
same,effect on MK-801-induced PPI deficits,"[1]; 3 and 10 mg/kg, p.o., at +12 and +16 dB above the background noise",significantly reversed
same,effect on MK-801-induced social interaction deficits,"[2]; 3 and 10 mg/kg, p.o.",significantly reversed
same,agonist effect assay on M4R,[12],opposite effect to that of icariside II

# — PMC10647531, “Effects of Icariin and Its Metabolites on GPCR Regulation and MK-801-Induced Schizophrenia-Like Behaviors in Mice” (Molecules, 2023)
